Experimental findings from PubChem BioAssay AID179 (DTP/NCI, 2004) are described below.

Activity calls are given as the source filed them.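 Rule for the calls: active = compounds giving half or more protection of infected cells from virus-caused growth loss, again on retest; inactive = the rest.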

For this test, the system named is CEM cells HIV-1 protection, formazan growth assay. As to the kind of experiment: NCI AIDS Antiviral Assay. The note with it: for IC50: measured here: growth of uninfected CEM cells. The method, boiled down: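 CEM (human) cells, HIV-1 infected vs uninfected, 5-point dosing, formazan growth read-out. Retest threshold 50% protection.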

The EC50 is the concentration at which the effect is half-maximal. As usually defined, the IC50 is the concentration that gives 50% inhibition. A low value points to greater potency. `C[N+](C)(Cc1ccco1)c1ccccc1`: the EC50 was greater than 3.16 µM and the IC50 was greater than 3.16 µM. `O=C1CSSCC(=O)NCCCN1`: the EC50 is greater than 45.7 µM and the IC50 is greater than 45.7 µM. As to `Cc1cc(C)n(C2=NS(=O)(=O)c3ccccc3N2C)n1`, the EC50 is greater than 123 µM and the IC50 was greater than 123 µM. `CC(C)[C@@H](C)/C=C/[C@@H](C)C1CC2C3=CC=C4C[C@@H](OC5OCC(O)C6OC(=O)C(=O)OC56)CC[C@]4(C)C3CC[C@]2(C)C1` (stereo partly specified): the EC50 was greater than 200 µM and the IC50 was found to be 11 µM. As to `CN(C)c1nc(N(C)C)nc(N2C(=O)CCC2=O)n1`, the EC50 is greater than 200 µM and the concentration for half-maximal inhibition (IC50) was greater than 200 µM.

For the molecule `COc1ccc(/C=C2\CCCCCC2=O)cc1`, the EC50 is greater than 200 µM and the IC50 is greater than 200 µM.

`Cc1[nH]nc2c1NC(=O)OC2C` (stereo unspecified): the EC50 was greater than 1480 µM and the 50% inhibitory concentration (IC50) was 1200 µM. Take `O=C1CC(c2ccccc2)C(c2ccccc2)C1=O` (stereo unspecified): the EC50 is greater than 129 µM and the IC50 stood at 52.5 µM.

In the case of `N#C/C(=C\NC(N)=S)C(=O)c1ccc2ccccc2c1`, the result was inactive. For `COc1ccc(OC)c2c(C(=O)O)c(Cc3ccccc3)ccc12`, the outcome was inactive. In the case of `O=C(Nc1ccccc1)OCCN=C1c2ccccc2C(Br)C(Br)c2ccccc21` (stereo unspecified), the EC50 was greater than 200 µM and the IC50 stood at 0.794 µM. Take `N#C/C(N)=C(\C#N)NC(=O)C(=O)N/C(C#N)=C(\N)C#N`: the concentration giving a half-maximal response (EC50) was 69.2 µM and the IC50 was greater than 200 µM.

For `O=C1C=C(C2=CC(=O)C(=O)c3ccccc32)c2ccccc2C1=O`, the EC50 is greater than 151 µM and the concentration for half-maximal inhibition (IC50) turned out to be 1.91 µM. With `CC(=O)CC(OC(C)=O)C1=CCC2C(CC1C)OC(=O)C2C` (stereo unspecified), the EC50 is greater than 224 µM and the IC50 was found to be 39.8 µM.

Take `CCOC(=O)P(=O)(O)c1ccc(N(C)Cc2ccccc2)cc1`: the EC50 was greater than 200 µM and the IC50 was greater than 200 µM. Turning to `O=S(=O)([O-])[O-].O=c1[nH]cnc2nc[n-]c12.[OH3+].[OH3+].[Zn+2]`, the EC50 was greater than 21.4 µM and the half-maximal inhibitory concentration (IC50) was greater than 21.4 µM. In the case of `CC(=O)C(=[N+]=[N-])C(=O)N1CCOC1=O`, the EC50 was greater than 200 µM and the IC50 was greater than 200 µM. Turning to `OCC1OC(n2cnc(C3=NCCCN3)n2)C(O)C1O` (stereo unspecified), the result was inactive. For the molecule `Cc1c(C)c2c(c(N)c1C#N)C(=O)N(CCc1ccccc1)C2=O`, the EC50 was greater than 200 µM and the half-maximal inhibitory concentration (IC50) worked out at 170 µM. Take `O=C1C(=C(C(F)(F)Cl)C(F)(F)Cl)C2CCC1C2` (stereo unspecified): the result was inactive. On to `CC(=O)c1cc(-c2ccccn2)c(=O)n2ccccc12`, for which the EC50 was greater than 200 µM and the IC50 was 112 µM.

With `CCN(CC)CCNc1ccc2ncn3c4c(OC)cccc4c(=O)c1c23`, the EC50 is greater than 50.1 µM and the half-maximal inhibitory concentration (IC50) was determined as 0.871 µM.

With `C=CC(C)(C)C1(CC(OC)OC)C(=O)N(C)c2ccccc21` (stereo unspecified), the EC50 was greater than 200 µM and the IC50 is greater than 200 µM.

Regarding `COc1cc2c(cc1OC)[C@@](C)(C(O)C(O)C(C)(C)O)NCC2` (stereo partly specified), the EC50 is greater than 200 µM and the IC50 is greater than 200 µM. `CCOC(=O)/C(=C/c1ccco1)C(=O)c1ccccc1`: the EC50 was greater than 132 µM and the IC50 came out at 77.6 µM. On to `O=C1Cc2nc(CO)c(CO)c(CO)c2CO1`, for which the EC50 is greater than 1050 µM and the IC50 is greater than 1050 µM. Regarding `CC1(C)CSCC(C)(C)C(=N/N)/C1=N\N`, the EC50 was greater than 200 µM and the IC50 is greater than 200 µM.

As to `O=C(Nc1ccccc1)c1ccccc1[Se][Se]c1ccccc1C(=O)Nc1ccccc1`, the EC50 was 5.37 µM and the IC50 turned out to be 9.55 µM.

Regarding `O=C(NO)c1ccc(OCc2cccc(Cl)c2)cc1`, the EC50 was greater than 200 µM and the IC50 was found to be 10 µM. For the molecule `S=C1NC2(CCCCC2)NC12CCCCC2`, the EC50 was greater than 200 µM and the IC50 is greater than 200 µM.

For `Cc1cc(CC(=O)NCCO)n(CCO)c(=O)c1`, the EC50 was greater than 977 µM and the half-maximal inhibitory concentration (IC50) is greater than 977 µM. On to `CCCCCCCCCCCCCC(=O)OC1C(O)C(CO)OC(OC)C1NC(=O)N(CCCl)N=O` (stereo unspecified), for which the EC50 is greater than 34.7 µM and the concentration for half-maximal inhibition (IC50) was greater than 34.7 µM. With `CC(=O)Nc1ccc(S(=O)(=O)Nc2ccc(S(=O)(=O)c3ccc(NC(=O)c4ccccc4SSc4ccccc4C(=O)Nc4ccc(S(=O)(=O)c5ccc(NS(=O)(=O)c6ccc(NC(C)=O)cc6)cc5)cc4)cc3)cc2)cc1`, the EC50 is 24 µM and the IC50 was greater than 100 µM. Turning to `Cc1ccc(N2C=[N+](C)c3ccc(C)cc3C2)cc1`, the EC50 was greater than 200 µM and the IC50 was determined as 33.9 µM. For `S=C(NNC1=NCCCN1)Nc1ccccc1`, the EC50 is greater than 200 µM and the IC50 is 12.6 µM.

Regarding `O=C1C(OC(=O)c2ccccc2)=C(c2ccc(O)cc2)C(=O)C(OC(=O)c2ccccc2)=C1c1ccc(O)cc1`, the EC50 is greater than 39.8 µM and the IC50 was greater than 39.8 µM. In the case of `COC(=O)[C@H](CO)NC(=O)CC/C(C)=C/c1ccccc1`, the EC50 is greater than 200 µM and the IC50 was determined as 191 µM. Turning to `Brc1nc2c3ccccc3ncn2c1Br`, the EC50 was greater than 30.2 µM and the IC50 was 14.8 µM. Taken in the same sequence, the figures for `COc1ccc(CN2COc3c(cc(Cl)c4cccnc34)C2)cc1` were greater than 200 µM and 1.55 µM. Consider `COc1ccc(C23c4ccc(OC)cc4CC2(c2ccc([N+](=O)[O-])cc2)Cc2cc(OC)ccc23)cc1` (stereo unspecified), for which the EC50 was greater than 200 µM and the half-maximal inhibitory concentration (IC50) is greater than 200 µM.

Consider `O=C1c2cccc3cccc(c23)C(=O)N1CCNCCN1C(=O)c2cccc3cccc(c23)C1=O`, for which the EC50 was greater than 29.5 µM and the IC50 amounted to 10.5 µM. For the molecule `C=C1CC(C)(Cn2cnc3c(N)ncnc32)OC1=O` (stereo unspecified), the EC50 is greater than 200 µM and the IC50 is 11.2 µM. For `CC(C)(C)OC(=O)NCCCCC(N)NC(=O)c1ccccc1` (stereo unspecified), the EC50 is greater than 200 µM and the IC50 was greater than 200 µM.

`NC(=S)N/N=C1/CN(c2ccc(Cl)c(Cl)c2)CC(=O)C1c1nc2ccccc2s1` (stereo unspecified): the outcome was inactive.

For the molecule `Cn1c(N=P(c2ccccc2)(c2ccccc2)c2ccccc2)c([N+](=O)[O-])c(=O)n(C)c1=O`, the outcome was inactive. Consider `COc1ccc(/C=N/n2cnc3c(sc(=S)n3-c3ccccc3)c2=O)cc1`, for which the EC50 is greater than 6.92 µM and the IC50 is greater than 6.92 µM. With `CCOC(=O)C1=CN/C(=C(/C)C(=O)OC)SC1C(=O)OCC` (stereo unspecified), the EC50 is greater than 200 µM and the concentration for half-maximal inhibition (IC50) was determined as 37.2 µM.

As to `Cc1ccc2[nH]c(N(C)C)nc2c2nc(Cl)nc1-2`, the EC50 was greater than 200 µM and the IC50 was found to be 117 µM.

As for `CC(Oc1ccc(OCC2CCCCC2)cc1)C(N)=O` (stereo unspecified), the EC50 is greater than 36.3 µM and the IC50 was found to be 15.1 µM. Regarding `CC(C)(C)N1C(=O)[N+]2(CCCCC2)N=C1[O-]`, the EC50 is greater than 4.47 µM and the IC50 is greater than 4.47 µM. In the case of `O=C(N/N=C/c1c(-c2ccccc2)no[n+]1[O-])N1CCOCC1`, the EC50 was greater than 100 µM and the concentration for half-maximal inhibition (IC50) was greater than 100 µM. Regarding `COc1cccc(N2C(=O)C3CC(CC(C)(C)C)c4c([nH]c5ccccc45)C3C2=O)c1` (stereo unspecified), the EC50 was greater than 200 µM and the IC50 came to 42.7 µM. With `CCOc1ccccc1NC(=O)C(=O)C1C(=O)Nc2ccccc2S1=O` (stereo unspecified), the result was inactive. For `Oc1c2c(c(O)c3ccccc13)=N[C@@H](c1ccccc1)[C@H](c1ccccc1)N=2`, the result was inactive. Take `O=C(O)Cc1cccc2c(=O)c(-c3ccccc3)coc12`: the EC50 is greater than 200 µM and the half-inhibitory concentration (IC50) was greater than 200 µM. Take `CC1=CC(=O)c2c(C=O)c(O)c(O)c(C(C)C)c2C1=O`: the EC50 is greater than 95.5 µM and the IC50 stood at 1.91 µM. Consider `CCCCCCCCCCCCCCCC[N+](C)(C)Cc1ccc(C[N+](C)(C)CCCCCCCCCCCCCCCC)cc1`, for which the outcome was inactive. As for `CC(C(=O)N1C(=O)N(C(=O)C(C)C(O)c2ccccc2)C(c2ccccc2)C1c1ccccc1)C(O)c1ccccc1` (stereo unspecified), the EC50 was greater than 200 µM and the half-maximal inhibitory concentration (IC50) was determined as 28.2 µM.

`O=C(/C=C/c1cccs1)c1ccc(Cl)cc1`: the result was inactive.

Consider `COc1ccc(/C=C(\C(=C/c2ccc(OC)cc2)[N+](=O)[O-])[N+](=O)[O-])cc1`, for which the EC50 is greater than 200 µM and the IC50 was 4.57 µM. With `O=C(S)C(=O)Cc1nnn(-c2ccccc2)c1-c1ccccc1`, the EC50 was greater than 245 µM and the IC50 is greater than 245 µM. As to `CCOC(=O)c1c(NS(=O)(=O)c2ccc(C)cc2)sc(C)c1C`, the EC50 is greater than 200 µM and the concentration for half-maximal inhibition (IC50) came to 33.9 µM. The matching figures for `CCC(CCN)(CCN)[N+](=O)[O-]`: greater than 200 µM and greater than 200 µM. For `COc1cc2c3c(c1OC)-c1cc(O)ccc1C[C@H]3NCC2`, the result was inactive. As for `COc1nc2c(c(=O)n1C)N[C@@H]1[C@@H](O)[C@H](O)CO[C@@H]1N2`, the EC50 was greater than 200 µM and the IC50 is greater than 200 µM. `Cc1c(O)c2ccccc2c2c1sc(NCCO)[n+]2C`: the EC50 is greater than 79.4 µM and the IC50 amounted to 40.7 µM. On to `CNC(=O)N(CCC#N)CCCN(C(=O)NC)c1ccccc1`, for which the EC50 is greater than 200 µM and the IC50 was greater than 200 µM. Regarding `C(=Nc1ccc(SSc2ccc(N=Cc3ccc4c(c3)OCO4)cc2)cc1)c1ccc2c(c1)OCO2`, the EC50 was greater than 200 µM and the IC50 came to 23.4 µM. With `Cc1ccc(SSCCN)cc1`, the EC50 is greater than 200 µM and the IC50 turned out to be 11.7 µM.

Take `CC(C)CCCC(C)[C@H]1CC[C@H]2[C@@H]3CC[C@H]4C[C@@H](CCC=C(c5cc(Cl)c(OCC(=O)O)c(C(=O)O)c5)c5cc(Cl)c(OCC(=O)O)c(C(=O)O)c5)CC[C@]4(C)[C@H]3CC[C@]12C` (stereo partly specified): the EC50 was 91.2 µM and the IC50 is greater than 100 µM. `Cc1cc(=O)n2c(cc3cccccc32)n1`: the result was inactive. With `Cc1nc2c(c(=O)[nH]1)C1CCCCCCCN1C(=S)N2C` (stereo unspecified), the EC50 was greater than 200 µM and the half-inhibitory concentration (IC50) was 132 µM. On to `Clc1cc(N/N=C(\c2ccccc2)c2ccccn2)ncn1`, for which the EC50 was greater than 0.2 µM and the half-inhibitory concentration (IC50) stood at 0.0631 µM. On to `CN(CCNC(=O)c1cn(C)c2c1ccc1ccccc12)CCNC(=O)c1cn(C)c2c1ccc1ccccc12`, for which the EC50 was greater than 200 µM and the IC50 is 3.09 µM.
